Laboratory results as given in patent publication US8530667B2, “Herbicides” (Syngenta Limited, priority 2007, dated 2013).

Columns and labels:
Type in all cases: in vivo
[1] = test system: Echinochloa crus-galli (ECHCG); assay: Example B post-emergence herbicidal activity, glasshouse pot test; settings: 312 h, evaluated after 13 days, read-out: Post-emergence activity ECHCG (100=total damage to plant; 0=no damage to plant); for pest or weed control at 250 g/ha: rate 250 g/ha; for pest or weed control at 1000 g/ha: rate 1000 g/ha
Experimental: (§1) Seeds of a variety of test species were sown in standard soil in pots. After cultivation for one day (pre-emergence) or after 8 days cultivation (post-emergence) under controlled conditions in a glasshouse (at 24/16° C., day/night; 14 hours light; 65% humidity), the plants were sprayed with an aqueous spray solution derived from the formulation of the technical active ingredient in acetone/water (50:50) solution containing 0.5% Tween 20 (polyoxyethelyene sorbitan monolaurate, CAS RN 9005-64-5). The test plants were then grown in a glasshouse under controlled conditions in a glasshouse (at 24/16° C., day/night; 14 hours light; 65% humidity) and watered twice daily. After 13 days for pre and post-emergence, the test was evaluated (100=total damage to plant; 0=no damage to plant). Alopecurus myosuroides (ALOMY), Avena fatua (AVEFA), Setaria faberi (SETFA), Echinochloa crus-galli (ECHCG) and Amaranthus retoflexus (AMARE)

[2] = test system: Avena fatua (AVEFA); assay: as above; settings: 312 h, evaluated after 13 days, read-out: Post-emergence activity AVEFA (100=total damage to plant; 0=no damage to plant); for pest or weed control at 250 g/ha: rate 250 g/ha; for pest or weed control at 1000 g/ha: rate 1000 g/ha
Experimental: as §1

[3] = test system: Amaranthus retoflexus (AMARE); assay: as above; settings: Amaranthus retroflexus, 312 h, evaluated after 13 days, read-out: Post-emergence activity AMARE (100=total damage to plant; 0=no damage to plant); for pest or weed control at 250 g/ha: rate 250 g/ha; for pest or weed control at 1000 g/ha: rate 1000 g/ha
Experimental: as §1

[4] = test system: Setaria faberi (SETFA); assay: as above; settings: 312 h, evaluated after 13 days, read-out: Post-emergence activity SETFA (100=total damage to plant; 0=no damage to plant); for pest or weed control at 250 g/ha: rate 250 g/ha; for pest or weed control at 1000 g/ha: rate 1000 g/ha
Experimental: as §1

[5] = test system: Alopecurus myosuroides (ALOMY); assay: as above; settings: 312 h, evaluated after 13 days, read-out: Post-emergence activity ALOMY (100=total damage to plant; 0=no damage to plant); for pest or weed control at 250 g/ha: rate 250 g/ha; for pest or weed control at 1000 g/ha: rate 1000 g/ha
Experimental: as §1

[6] = test system: Echinochloa crus-galli (ECHCG); assay: Example B pre-emergence herbicidal activity, glasshouse pot test; settings: 312 h, Rate 250 g/ha, evaluated after 13 days, read-out: Pre-Emergence Activity ECHCG (100=total damage to plant; 0=no damage to plant)
Experimental: as §1

[7] = test system: Avena fatua (AVEFA); assay: as above; settings: 312 h, Rate 250 g/ha, evaluated after 13 days, read-out: Pre-Emergence Activity AVEFA (100=total damage to plant; 0=no damage to plant)
Experimental: as §1

[8] = test system: Amaranthus retoflexus (AMARE); assay: as above; settings: Amaranthus retroflexus, 312 h, Rate 250 g/ha, evaluated after 13 days, read-out: Pre-Emergence Activity AMARE (100=total damage to plant; 0=no damage to plant)
Experimental: as §1

[9] = test system: Setaria faberi (SETFA); assay: as above; settings: 312 h, Rate 250 g/ha, evaluated after 13 days, read-out: Pre-Emergence Activity SETFA (100=total damage to plant; 0=no damage to plant)
Experimental: as §1

[10] = test system: Alopecurus myosuroides (ALOMY); assay: as above; settings: 312 h, Rate 250 g/ha, evaluated after 13 days, read-out: Pre-Emergence Activity ALOMY (100=total damage to plant; 0=no damage to plant)
Experimental: as §1

| SMILES | pest or weed control at 250 g/ha [1] | pest or weed control at 250 g/ha [2] | pest or weed control at 250 g/ha [3] | pest or weed control at 250 g/ha [4] | pest or weed control at 250 g/ha [5] | pest or weed control at 250 g/ha [6] | pest or weed control at 250 g/ha [7] | pest or weed control at 250 g/ha [8] | pest or weed control at 250 g/ha [9] | pest or weed control at 250 g/ha [10] | pest or weed control at 1000 g/ha [1] | pest or weed control at 1000 g/ha [2] | pest or weed control at 1000 g/ha [3] | pest or weed control at 1000 g/ha [4] | pest or weed control at 1000 g/ha [5] |
| --- | --- | --- | --- | --- | --- | --- | --- | --- | --- | --- | --- | --- | --- | --- | --- |
| CCc1sc(-c2ccc(Cl)cc2)nc1C1=C(OC(=O)C(C)(C)C)[C@@H]2[C@H](C1=O)[C@H]1CC[C@@H]2O1 (racemic) [Compound P3] | 100% | 100% | 0% | 100% | 100% |  |  |  |  |  |  |  |  |  |  |
| CCc1sc(-c2ccc(Cl)cc2)nc1C1=C(OC(=O)C2CC2)[C@@H]2[C@H](C1=O)[C@H]1CC[C@@H]2O1 (racemic) [Compound P4, cyclopropanecarboxylic acid-4-[2-(4-chloro-phenyl)-5-ethyl-thiazol-4-yl]-5-oxo-10-oxa-tricyclo[5.2.1.0*2,6*]dec-3-en-3-yl ester] | 100% | 100% | 0% | 100% | 100% | 90% | 90% | 0% | 90% | 60% |  |  |  |  |  |
| CC(=O)OC1=C(c2nc(-c3ccc(Br)cn3)sc2C)C(=O)[C@H]2[C@@H]1[C@@H]1CC[C@H]2O1 (racemic) [Compound P5] | 100% | 90% | 0% | 100% | 90% | 90% | 70% | 0% | 100% | 50% |  |  |  |  |  |
| Cc1sc(-c2ccc(Br)cn2)nc1C1=C(OC(=O)C2CC2)[C@@H]2[C@H](C1=O)[C@H]1CC[C@@H]2O1 (racemic) [Compound P6] | 100% | 90% | 0% | 100% | 90% | 20% | 0% | 0% | 70% | 0% |  |  |  |  |  |
| CCc1sc(-c2ccc(Cl)cc2)cc1C1C(=O)[C@@H]2[C@H](C1=O)[C@H]1CC[C@@H]2O1 (stereo partly shown) [Compound T17, 4-[5-(4-chloro-phenyl)-2-ethyl-thiophen-3-yl]-10-oxa-tricyclo[5.2.1.0*2,6*]decane-3,5-dione] |  |  |  |  |  |  |  |  |  |  | 100% | 100% | 70% | 100% | 100% |
| Cc1sc(-c2cc(C(F)(F)F)n(C)n2)cc1C1C(=O)[C@@H]2[C@H](C1=O)[C@H]1CC[C@@H]2O1 (stereo partly shown) [Compound T18] |  |  |  |  |  |  |  |  |  |  | 20% | 0% | 0% | 40% | 20% |
| COC(=O)c1ccc(-c2cc(C3C(=O)[C@@H]4[C@H](C3=O)[C@H]3CC[C@@H]4O3)c(C)s2)cc1 (stereo partly shown) [Compound T19] |  |  |  |  |  |  |  |  |  |  | 0% | 0% | 20% | 30% | 10% |
| Cc1[se]c(-c2ccc(Cl)cc2)nc1C1C(=O)[C@@H]2[C@H](C1=O)[C@H]1CC[C@@H]2O1 (stereo partly shown) [Compound T34, 4-[2-(4-chloro-phenyl)-5-methyl-selenazol-4-yl]-10-oxa-tricyclo[5.2.1.0*2,6*]decane-3,5-dione] |  |  |  |  |  | 70% | 20% | 0% | 90% | 40% |  |  |  |  |  |
